According to patent US20250249014A1, “A COMBINATION FOR TREATING A RETINAL DISEASE” (HADASIT MEDICAL RESEARCH SERVICES AND DEVELOPMENT LTD., priority 2022, published 2025):
Counter-ions that a name gives are not always drawn. Like-named read-outs stand apart in the source and are kept apart here.

Key:
HUVECs [1] = assay: Cell proliferation assay (WST-1) on HUVECs, with synergy analysis; type: cell-based, Human; settings: for IC50 (inhibitory concentration of 50% cell growth compared to control) / IC50 / % of Inhibition ± SD: HUVECs proliferation; for dose-proliferation inhibition relationship: increasing SMI concentration; for IC50: Homo sapiens, HUVEC; for % of Inhibition ± SD: maximal attainable concentration of each SMI (28.421 μM, 17.85 μM, 20.99 μM); for effect of addition to the Azeliragon and EHop-016 combination on proliferation inhibition: CCR2-RA-[R] 22.74 μM
Method: Cell proliferation assay—The principle of cell proliferation assay is illustrated in FIG. 1. Briefly, HUVECS were seeded and maintained in EGM™-2 (Lonza Bioscience Solutions) medium for 24 hours. The cells were then treated with various dosages of SMI for designated time periods. Each experiment included a DMSO-treated control group. Tetrazolium salt was added according to the manufacturer's instructions and formation of formazan dye was quantified by measuring the absorbance at 440 nm using spectrophotometer. The formation of formazan dye is directly proportional to number of living cells.
Analysis of combined synergistic effect-Analysis of combined SMIs effect was determined from the results of the cell proliferation assay after 72 hours. SMIs synergy was determined by three synergy models. • 1. The Zero Interaction Potency (ZIP) model is a reference model for evaluating the effect of combination of two drugs by comparing the change in the potency of the dose-response curves between individual drugs and their combinations. A zip score higher than 10 is indicative of a synergistic combination, a zip score of between −10 and 10 is indicative of an additive combination and a zip score lower than −10 is indicative of an antagonistic combination. • 2. […] Values below 1 will represent synergism and above 1 antagonism.

HUVECs [2] = assay: Endothelial cell migration assay (scratch test); type: cell-based, Human; settings: EHop-016 0.8 μM at 11 hours, CCR2-RA-[R] 5 μM at 13 hours
Method: Endothelial cell migration assay (scratch test)—5×10^4 cells/200 μl of HUVECs were cultured in 96 wells Incucyte® ImageLock 96-well microplates plates to near confluence in EGM™-2 medium for 24 hours. Afterwards, a homogeneous, 700-800-micron wide scratch wounds were created using Incucyte® WoundMaker. Different SMIs concentrations vs. DMSO (solvent) were added. Serial images for 26 hours of the migrating cells were obtained hourly using a live cell imaging system (Incucyte®).

[3] = tested on: choroidal neovascularization (CNV); assay: Laser-Induced CNV model; type: in vivo, C57BL/6J mice; settings: dosage calibration assays; EHop-016 30 μM, Aflibercept 41.27 μM
Method: Laser-Induced CNV Model—CNV was induced in C57BL/6J mice using argon green ophthalmic laser ([…], 50 μm, 0.1 sec) applied under fundoscopy to rupture Bruch's membrane. […] The injections were performed at the superotemporal sclera, where a perforating sclerotomy was made with 27-gauge (G) needle at approximately 1-2 mm from the limbus. Then, 1-2 μl of SMIs (solved in 5% Cremophor: 5% ethanol: 90% saline) vs. Sham were injected through the sclerotomy, under fundoscopy using 34 g microsyringe (Hamilton, Benfleet, UK).
Quantification of CNV—Eyes were enucleated, treated according to standard protocols. […] The flat mounts were then washed six times for 20 min each in PBS and mounted on a slide using mounting medium. The area of CNV surrounding each laser injury was measured using ImageJ software.

[4] = tested on: Hypoxia-inducible factor 1-alpha (HIF-1α); assay: Western blot of HIF-1α expression in HUVEC cells; type: cell-based, Human; settings: 72 hours, combination Azeliragon 0.6 μM and EHop-016 1.3 μM
Method: Western blot—5×10^4 HUVEC cells were seeded in 10 cm dish in EGM™-2 medium for 24 hours. The cells were then treated with various dosages and combinations of SMI for 72 hours in addition to a control group treated with DMSO. Cells were lysed in WCE (whole-cell extraction) buffer [25 mM Hepes, pH 7.7, 0.3 M NaCl, 1.5 mM MgCl2, 0.2 mM EDTA, 0.1% Triton X-100, 0.5 mM DTT (dithiothreitol), 20 mM 2-glycerophosphate, 0.1 mM Na3VO4, 100 μg/ml PMSF and protease inhibitor cocktail (Sigma-Aldrich, 1:100 dilution)]. The proteins were then separated by SDS/PAGE (10% gel), followed by transfer on to a nitrocellulose membrane. Blots were blocked in 5% (w/v) non-fat dried skimmed milk powder in PBS and washed in PBS.

choroid explants = assay: Choroid sprouting assay, ex-vivo; type: cell-based, C57BL/6J mice; settings: 7 days; 0.55 μM Azeliragon, EHop-016 alone, 0.70 μM in combination; compared to untreated and DMSO
Method: Plates were then incubated for 10 minutes in 37° C., in a 5% CO2 cell culture incubator without medium to solidify the Matrigel™. […] Fresh medium and SMIs were replaced every two days and grown for 7 days (x3 time medium replaced).

VEGF = settings: diabetic macular edema patients; cited from earlier work
VEGF, sequence (P15692 207-311 limits assumed): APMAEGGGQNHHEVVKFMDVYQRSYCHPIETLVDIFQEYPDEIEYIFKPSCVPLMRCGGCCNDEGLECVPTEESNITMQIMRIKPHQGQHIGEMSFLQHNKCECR

[5] = HUVECs, single 72-hour treatment
[6] = single 72-hour treatment, read-out: IC50 (inhibitory concentration of 50% cell growth compared to control)

## Cc1ccc(NC(=O)c2cccc(OCc3c(C)noc3C)c2)cc1S(N)(=O)=O (racemic) [Z62954982, 3-((3,5-Dimethylisoxazol-4-yl)methoxy)-N-(4-methyl-3-sulfamoyl-phenyl)benzamide]
HUVECs [1]; single 72-hour treatment
  IC50 (inhibitory concentration of 50% cell growth compared to control): No effect
HUVECs [1]; HUVECs, treatment time extended to 120 hours compared to 72-hour incubation
  inhibitory effect with longer incubation time: did not improve the inhibitory effect

## COc1ccc(/C=C/c2cc(O)cc(O)c2)cc1 [4′-Methoxyresveratrol, 5-[(E)-2-(4-Methoxyphenyl)ethen-1-yl]benzene-1,3-diol]
HUVECs [1]; [5]
  dose-proliferation inhibition relationship: linear inhibition of proliferation
HUVECs [1]; [6]
  IC50: 64 µM

## O=C(CNC(=O)c1cccc(C(F)(F)F)c1)N[C@@H]1CCN(Cc2ccc(Cl)cc2)C1 [CCR2 antagonist 4 hydrochloride, N-[2-[[(3R)-1-[(4-chlorophenyl)methyl]-3-pyrrolidinyl]amino]-2-oxoethyl]-3-(trifluoromethyl)benzamidehydrochloride]
HUVECs [1]
  % of Inhibition ± SD: 13.8 ± 8.07%

## CC(=O)C1=C(O)C(=O)N(c2ccc(Cl)cc2F)[C@@H]1C1CCCCC1 [CCR2-RA-[R], (R)-4-Acetyl-1-(4-chloro-2-fluorophenyl)-5-cyclohexyl-3-hydroxy-1,5-dihydro-2H-pyrrol-2-one]
HUVECs [2]
  inhibition of HUVECs migration: strongly inhibited cell migration
HUVECs [1]
  inhibition of HUVECs proliferation (summary in words): did not show significant inhibition
  % of Inhibition ± SD: 33.4 ± 4.30%
HUVECs [1]; HUVECs, 24-hour treatment
  effect of addition to the Azeliragon and EHop-016 combination on proliferation inhibition: significantly augmented the proliferation inhibition effect
HUVECs [1]; HUVECs, 48- and 72-hour treatment
  effect of addition to the Azeliragon and EHop-016 combination on proliferation inhibition: not

## CCn1c2ccccc2c2cc(Nc3ccnc(NCCCN4CCOCC4)n3)ccc21 [EHop-016, N4-(9-Ethyl-9H-carbazol-3-yl)-N2-[3-(4-morpholinyl)propyl]-2,4-pyrimidinediamine]
HUVECs [2]
  inhibition of HUVECs migration: strongest migration inhibitor
[3]
  CNV area: comparable to the dramatic effect received from Aflibercept injection
[4]
  HIF-1α expression: inhibited expression
Choroid explants
  area of the sprouting vessels: inhibited the area of the sprouting vessels
HUVECs [1]; HUVECs at 3×10^3 and 1×10^3 cells/well
  dependence of proliferation inhibition on the initial number of cells: independent from the initial number of cells
HUVECs [1]; HUVECs, 72 hours
  decrease of IC50 by daily dosing in comparison with IC50 of SD regimen: more than a half
HUVECs [1]; [5]
  dose-proliferation inhibition relationship: linear inhibition of proliferation
HUVECs [1]; daily dosing, 72 hours, read-out: IC50 following daily dosing regimen
  IC50: 1.24 µM
HUVECs [1]; [6]
  IC50: 2.31 µM

## O=C(c1ccc(Cl)cc1)N(Cc1ccccc1)C1CCCCC1 [FPS-ZM1, 4-Chloro-N-cyclohexyl-N-(phenylmethyl)benzamide]
HUVECs [1]; [5]
  dose-proliferation inhibition relationship: linear inhibition of proliferation
HUVECs [1]; [6]
  IC50: 30 µM

## CCN(CC)CCCC(C)Nc1nc(C)cc(Nc2ccc3nc(C)cc(N)c3c2)n1.Cl.Cl.Cl (stereo not shown) [NSC 23766 trihydrochloride, N6-[2-(4-Diethylamino-1-methyl-butylamino)-6-methyl-pyrimidin-4-yl]-2-methyl-quinoline-4,6-diamine trihydrochloride]
HUVECs [1]; single 72-hour treatment
  IC50 (inhibitory concentration of 50% cell growth compared to control): No effect

## O=C(NCC(=O)N1CC[C@H](NC2CCC(O)(c3ccc(-c4ncccn4)cn3)CC2)C1)c1cccc(C(F)(F)F)c1 (stereo partly drawn) [PF-4136309, N-[2-[(3S)-3-[[4-hydroxy-4-(5-pyrimidin-2-ylpyridin-2-yl)cyclohexyl]amino]pyrrolidin-1-yl]-2-oxoethyl]-3-(trifluoromethyl)benzamide]
HUVECs [1]
  % of Inhibition ± SD: 25.7 ± 7.68%

## Aflibercept: Aflibercept (Eylea®), comparator injection in Laser-induced CNV model
[3]
  CNV area: dramatic effect

B1: Ranibizumab: a monoclonal antibody that inhibits VEGF (antibody, chains of the INN, looked up, V domains shown)
VH: EVQLVESGGGLVQPGGSLRLSCAASGYDFTHYGMNWVRQAPGKGLEWVGWINTYTGEPTYAADFKRRFTFSLDTSKSTAYLQMNSLRAEDTAVYYCAKYPYYYGTSHWYFDVWGQGTLVTVSS
VL: DIQLTQSPSSLSASVGDRVTITCSASQDISNYLNWYQQKPGKAPKVLIYFTSSLHSGVPSRFSGSGSGTDFTLTISSLQPEDFATYYCQQYSTVPWTFGQGTKVEIK
VEGF
  clinical outcome (vision, macular edema): rapidly and sustainably improved vision
